# According to patent US11198741B2, “Medicines for topic use based on sulfated hyaluronic acid as activating or inhibiting agent of the cytokine activity” (Fidia Farmaceutici S.p.A., priority 2009, dated 2021):
# What was measured:
# [1] = tested on: Herpes Simplex Virus-1 (HSV-1: KOS, F and McIntyre strain); test: Inhibition of viral cytopathogenicity in E6SM fibroblast cells, HSV-1; assay type: cell-based; settings: 2nd day of incubation, numbers only in FIG. 10
# TNF receptor = test: Inhibition of the binding of 125I-TNF to its receptor in U937 cells (Radioligand Binding); set-up: species or system human; settings: 125I-TNF 0.028 nM, sample 1 mg/ml, 4° C. 3 hours, medium and low MW
# Text: These experiments were effected to evaluate the effectiveness of the samples tested (prepared according to Examples 1-4) on the capacity of inhibiting the binding of TNF to its receptor expressed by cells of the I.S. normally used in vitro for this type of experiment, carried out with iodinated cytokine components for an evaluation in Radioligand Binding assays. The experimental procedure was effected as described in Baglioni C. et al., J Biol Chem, 1985, 260:13395-13397. In short, the line of human histiocytes of the lymphoma U937 was used, with characteristics of monocytes sensitive to the cytotoxic activity of TNF, expressing its relative receptor. […] At the end of the incubation, the cells were centrifuged with dibutylphthalate/dinonylphthalate 2/1 and the pellet obtained was counted in a γ-counter.
# fibrin clot = molecular target: T1, fibrin clot (Homo sapiens, UniProt P02671+P02675+P02679); test: In vitro fibrinolytic activity: dissolution of fibrin clot in coagulated plasma (absorbance at 405 nm); assay type: biochemical; settings: 37° C.
# T1 sequence (P02671 20-644 isoform P02671-2 limits assumed): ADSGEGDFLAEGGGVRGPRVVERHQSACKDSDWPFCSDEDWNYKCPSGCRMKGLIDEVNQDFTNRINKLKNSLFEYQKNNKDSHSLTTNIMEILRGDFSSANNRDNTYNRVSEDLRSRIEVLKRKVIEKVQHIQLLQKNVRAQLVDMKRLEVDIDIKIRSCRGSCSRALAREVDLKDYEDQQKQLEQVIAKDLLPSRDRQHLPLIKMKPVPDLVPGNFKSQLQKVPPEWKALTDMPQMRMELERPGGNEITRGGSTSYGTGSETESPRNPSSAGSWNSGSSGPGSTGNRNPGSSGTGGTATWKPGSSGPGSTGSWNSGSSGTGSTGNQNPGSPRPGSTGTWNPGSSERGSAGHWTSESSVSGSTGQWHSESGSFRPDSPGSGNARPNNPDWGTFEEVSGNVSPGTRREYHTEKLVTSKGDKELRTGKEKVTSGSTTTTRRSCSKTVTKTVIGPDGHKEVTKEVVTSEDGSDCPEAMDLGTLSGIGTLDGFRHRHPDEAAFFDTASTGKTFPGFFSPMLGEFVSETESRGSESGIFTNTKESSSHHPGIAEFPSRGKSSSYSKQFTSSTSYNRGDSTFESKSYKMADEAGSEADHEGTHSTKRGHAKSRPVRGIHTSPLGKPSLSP
# T1 sequence (P02675 45-491 limits assumed): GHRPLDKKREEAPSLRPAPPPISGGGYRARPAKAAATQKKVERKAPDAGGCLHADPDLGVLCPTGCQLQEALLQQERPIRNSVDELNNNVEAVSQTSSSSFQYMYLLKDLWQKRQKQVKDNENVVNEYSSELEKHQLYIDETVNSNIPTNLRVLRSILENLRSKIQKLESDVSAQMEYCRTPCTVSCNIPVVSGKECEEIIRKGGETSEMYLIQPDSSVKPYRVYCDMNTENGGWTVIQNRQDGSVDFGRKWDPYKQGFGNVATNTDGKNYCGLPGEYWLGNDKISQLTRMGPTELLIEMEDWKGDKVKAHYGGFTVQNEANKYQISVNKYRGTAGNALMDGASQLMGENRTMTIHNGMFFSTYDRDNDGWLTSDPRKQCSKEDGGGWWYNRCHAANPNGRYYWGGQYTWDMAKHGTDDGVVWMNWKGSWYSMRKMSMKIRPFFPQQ
# T1 sequence (P02679 27-437 isoform P02679-2 limits assumed): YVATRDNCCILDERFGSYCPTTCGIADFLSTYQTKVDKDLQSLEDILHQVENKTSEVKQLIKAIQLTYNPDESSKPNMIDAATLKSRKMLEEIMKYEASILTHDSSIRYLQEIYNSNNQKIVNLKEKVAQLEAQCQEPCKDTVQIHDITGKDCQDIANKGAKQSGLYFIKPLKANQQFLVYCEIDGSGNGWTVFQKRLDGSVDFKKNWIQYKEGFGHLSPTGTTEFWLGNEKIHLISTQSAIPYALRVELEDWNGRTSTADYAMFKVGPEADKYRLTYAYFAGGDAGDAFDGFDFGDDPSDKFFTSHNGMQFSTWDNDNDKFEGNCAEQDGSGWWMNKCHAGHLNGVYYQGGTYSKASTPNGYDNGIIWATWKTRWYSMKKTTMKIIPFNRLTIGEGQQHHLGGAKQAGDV
# Experimental: The evaluation of the fibrinolytic properties of the products subjected to the test was compared with the acknowledged fibrinolytic activity of the plasmin. In particular, the dissolution rate of the fibrin network and formation of soluble products of the fibrin degradation (FDP), was evaluated.
# In order to test the fibrinolytic effectiveness of the products subjected to testing, the blood samples were distributed in various test-tubes in which the clot formation was induced.
# The formation of FDP was then evaluated after the addition of:
# The freshly removed blood samples were distributed in various test-tubes containing sodium citrate in a ratio of 9:1. The test-tubes were immediately centrifuged at 3,000 rpm for 5 minutes. The plasma obtained was transferred to a new test-tube and immediately used for effecting the FDP evaluation.
# Thrombin (300 mU/ml), preheated to 37° C. was added to the plasma samples, as activator of the fibrinogen in inducing the formation of the clot.
# The following were added to the different cuvettes containing the fibrin clot:
# a plasmin solution 0.5 mU, 5 mU, 50 mU, 500 mU and 1 U
# solutions of HAS3 at concentrations of 25 mg/ml, 50 mg/ml, 100 mg/ml, 150 mg/ml and 200 mg/ml.
# The absorbance variation at 405 nm for 60 sec. was evaluated spectrophotometrically for each cuvette. The reaction was left to proceed until the complete dissolution of the clot.
# Coagulated plasma, plasmin solution and a solution of HAS3 200 KD and HAS3 20 KD were mixed in a ratio of 1:1 v/v and maintained at an operating temperature of 37° C.
substance,measurement,setting,value
sulfated hyaluronic acid degree 3 [HAS3],antiviral activity (inhibition of the cytopathogenicity of the virus) vs HSV-1,[1],powerful antiviral action
same,inhibition of the binding of TNF to its receptor,TNF receptor,100%
same,fibrinolytic activity (expressed in mU equivalents of Plasmin),fibrin clot; 25 mg/ml,0.5 mU
same,fibrinolytic activity (expressed in mU equivalents of Plasmin),fibrin clot; 50 mg/ml,3 mU
same,fibrinolytic activity (expressed in mU equivalents of Plasmin),fibrin clot; 100 mg/ml,10 mU
same,fibrinolytic activity (expressed in mU equivalents of Plasmin),fibrin clot; 150 mg/ml,50 mU
same,fibrinolytic activity (expressed in equivalents of Plasmin),fibrin clot; 200 mg/ml,1.1 U
